Experiments:
[1] = system: herpes simplex virus 1 (HSV 1), strain Angelotti; test: Antiviral action of D609 against HSV 1 (cytopathogenic effect) in monkey renal cells; assay type: cell-based; conditions: for D609 concentration necessary to reduce the number of the infected cultures by 50%: monkey renal cells (Rita line)
Procedure: Monkey renal cells (Rita line) were infected in Linbro plates with 20 plaque-forming units of herpes simplex virus 1 (HSV 1), strain Angelotti. After 15 min, fresh cell culture medium (adjusted to pH 6.8 by reduction of the amount of sodium bicarbonate to 0.85 g/l and addition of 1 ml of 1 N HCl) which contained either 0, 5, 10, 15, 20, 25 or 30 μg/ml of D609 was added. All batches were carried out in quadruplicate. At the same time, cultures containing D609 and a fourfold concentration of cholesterol or containing cholesterol alone were treated. After 5 days, the monkey renal cells were lyzed in all untreated cultures by means of the cytopathogenic effect (cpe). After a further three days, the number of the cultures with cpe was determined for each D609 concentration. As can be inferred from FIG. 2, the number of cultures with cpe decreases with increasing D609 dose. The antiviral action of D609 was increased by cholesterol. While without cholesterol 25 μg/ml of D609 were necessary in order to reduce the number of the infected cultures by 50%, in the presence of cholesterol only 10 μg/ml of D609 were necessary. Cholesterol alone had no effect on the replication of HSV. Up to the highest concentration (120 μg/ml), all cultures were lyzed by HSV 1.

herpes simplex virus 1 = test: Antiviral use of D609 ointment in animal experiments (background); assay type: in vivo
[2] = system: hairless mice (strain Swiss CD3, Nu/Nu); test: Irritating action of D609 ointments on hairless mice; conditions: for number of animals with slight erythema: 10 mice per group
Procedure: (§1) D609 was mixed in a mortar together with the same proportion by weight of potassium salt of decanoic acid and two parts by weight of phosphatidylcholine or two or four parts by weight of cholesterol. After this, sufficient highly liquid paraffin oil and petroleum jelly (1 part by weight of paraffin oil, 4 parts by weight of petroleum jelly) were added such that in each case a concentration of 1.25; 2.5; 5.0; or 10% of D609 was achieved. In the same manner, D609-containing ointments without phosphatidylcholine or cholesterol were prepared.
(§2) 100 mg of ointment were applied twice in the neck region to 10 hairless mice each (strain Swiss CD3, Nu/Nu) at an interval of four hours. 12 hours after the last application, the degree of irritation was read off. The irritation was assessed according to the following scheme: slight erythema 0.5; severe erythema 1.0; ulceration 2.0.

[3] = Tolerability of D609 / xanthates in ointments (background); conditions: ointment
[4] = Stability of D609 in aqueous solution (pH increase as measure of decomposition); assay type: physicochemical; conditions: 1 mg/ml D609 in distilled water, 37° C.
Procedure: D609 was dissolved in distilled water in a concentration of 1 mg/ml. 100 ml of this solution in each case were filled into a 200 ml Erlenmeyer flask. One of two solutions was treated with 1 g of cholesterol. Both solutions were incubated at 37° C. The pH of the solutions was determined at regular intervals. D609 decomposes in the presence of water to give tricyclodecanol, carbon disulfide and KOH. The pH of the solution increases with the formation of KOH. The increase in the pH is therefore a measure of the decomposition of D609.

[5] = system: hairless mice (strain Swiss CD3, Nu/Nu); conditions: mouse, in vivo
Procedure: as §1, §2

[6] = ointments with 4 parts by weight of cholesterol, 10% D609
[7] = ointments with two parts by weight of cholesterol (plus same weight of potassium salt of decanoic acid)

| Structure (SMILES) | effect on the replication of HSV ([1]; cholesterol alone, up to the highest concentration (120 μg/ml), all cultures were lyzed) | concentration needed in an ointment for effective antiviral use (herpes simplex virus 1) | degree of irritation ([2]; 2.5% D609 in pure petroleum jelly ointment without phosphatidylcholine or cholesterol, 100 mg applied twice, read 12 hours after last application) | degree of irritation ([2]; 5% D609 in pure petroleum jelly ointment without phosphatidylcholine or cholesterol, 100 mg applied twice, read 12 hours after last application) | number of animals with slight erythema ([2]; ointments containing four parts by weight of phosphatidylcholine, 5% D609) | number of animals with slight erythema ([2]; ointments containing four parts by weight of phosphatidylcholine, 10% D609) | degree of irritation [2, 6] | number of animals with slight erythema [2, 6] | D609 concentration at which a significant irritation occurred [2, 7] | degree of irritation [2, 7] | maximum tolerable concentration in ointments [3] | D609 concentration necessary to reduce the number of the infected cultures by 50% ([1]; in the presence of a fourfold concentration of cholesterol, pH 6.8) | factor by which antiviral action of D609 is improved by cholesterol ([1]; pH 6.8, with versus without cholesterol) | D609 concentration necessary to reduce the number of the infected cultures by 50% ([1]; without cholesterol, pH 6.8, cpe read after 8 days) | pH increase and thus decomposition ([4]; 100 ml treated with 1 g of cholesterol, after 72 hours) | time within which marked decomposition is seen ([4]; without cholesterol) | tolerability [5] |
| --- | --- | --- | --- | --- | --- | --- | --- | --- | --- | --- | --- | --- | --- | --- | --- | --- | --- |
| CC(C)CCC[C@@H](C)[C@H]1CC[C@H]2[C@@H]3CC=C4C[C@@H](O)CC[C@]4(C)[C@H]3CC[C@]12C [Cholesterol, cholesterol] | no effect |  |  |  |  |  |  |  |  |  |  |  |  |  |  |  |  |
| S=C(S)OC1CC2CC1C1CCCC21 (centres unmarked) [D609, tricyclodecan-9-yl xanthate] |  | at least 2.5% | marked irritation | very strongly pronounced | one | five | almost free of irritant action | one | 10% | marked decrease in the symptoms | 1% | 10 µg/mL | > 2.5 | 25 µg/mL | only a small pH increase | ≤ 6 h | marked improvement in the tolerability |
